The values below come from patent publication US20100158863A1, “TRIAZOLOANILINOPYRIMIDINE DERIVATIVES FOR USE AS ANTIVIRAL AGENTS” (ARROW THERAPEUTICS LIMITED, priority 2006, published 2010).

One data set addresses HCV replicon 1b (Huh-9B). Briefly: HCV replicon activity, luciferase detection on the replicon plate. Type of data set: cell-based, HCV genotype 1b. Conditions: Huh-9B replicon cells, luciferase signal. The text has this: 1b replicon (Huh.7) described in Science 285, 110-113. • Huh-9B: liver cell line with persistent bicistronic HCV genotype 1b coding sequence: [I3891ucubineo—3-3′_ET] includes firefly luciferase-ubiquitin-neomycin phosphotransferase fusion protein and EMCV-IRES driven non-structural HCV (NS3 to NS5B) coding sequence including cell culture adaptive mutations E1202G, […] and K1846T (Lohmann et al, 2001).
This assay is set up using all 96 wells of flat-bottomed 96-well plates. Plates are set up one day before addition of compounds. The assay then runs for 4 days with ELISA development taking place on the 5th day.
Exponentially growing Huh-9B monolayers are washed with sterile PBS to remove serum and treated with trypsin to detach cells from the flask.
(§1) Cells are suspended in growth media and counted using a haemocytometer. Duplicate 96 well plates are seeded with Huh-9B at a density of 10^4 cells/well in a total volume of 100 μl/well of growth medium without antibiotics as depicted below.
(§2) One of the plates is an opaque white 96-well plate used for IC50 determination based on the luciferase signal (referred as replicon plate), the other one is a clear 96-well plate used for a parallel determination of drug toxicity by methylene blue staining (referred as tox plate). Wells G12 and H12 of the tox plate are left without cells to use as buffer alone background reading.
Plates are then incubated at 37° C. in a 5% CO2 environment for 24 h to obtain a 90% confluent cell monolayer.
(§3) Doubling dilutions of each compound are generated in a separate 96 high volume capacity round bottom plate to twice their initial concentration in the assay using growth medium without antibiotics.
Five compounds (C1 to C5) are tested on each assay plate as illustrated below plus a control compound that is also included in each plate.
(§4) Compounds are tested across an 8 point doubling dilution series. The initial dilution of each compound to be tested is 25 μM and 12.5 μM for the control compound.
DMSO only wells (A1 and A2) at 1% provide the signal corresponding to maximal (100%) luciferase detection. […] The signal from the DMSO wells at 1% (maximal signal) constitutes the assay window.
(§5) For each compound dilution on the 2×96-well dilution plate 100 μl are transferred using a multichannel pipette onto the replicon and tox plates mirror wells which contain […] of medium to obtain the desired final concentration.
Media is tapped out from wells into Virkon and plates are washed once in warm PBS and tapped dry gently.
For each well 20 μl of lysis buffer is added by multichannel pipette. Lysates are stable at this point for several hours.
Luciferase assay buffer is placed it in the luminometer (Lmax, Molecular Devices).
The M injector is primed with 4×300 μl of luciferase assay buffer. The plate to be analyzed is placed in the luminometer and […] of luciferase assay buffer injected automatically into one well followed by 4 seconds integration read out.
After one second delay a second well is injected with 100 μl of luciferase assay buffer followed by 4 seconds integration read out and so forth until all 96 wells are analyzed.
Once the reading is finished the luminometer injection system is washed with deionised water.
The data is acquired using the SOFTmax for Lmax Pro software package.
(§6) SOFTmax data files are exported as Excel or text files. A standard four parameters non-linear regression analysis of the data obtained from each compound is then used to calculate the IC50.
(§7) In the above analysis all replicate wells are meaned. The % of control is then calculated for each concentration point as a percentage of the DMSO control wells.

For another data set, the system named is Huh-9B. Nature of the data set: Toxicity determination on the tox plate by methylene blue staining. The settings on record: Huh-9B cells, parallel tox plate. It is filed as cell-based. How it is done:
as §1, §2, §3, §4, §5
Media is tapped out from wells into Virkon and plates tapped dry gently. To each well 100 μl of 0.5% solution of methylene blue in 50% methanol is added to all wells including blanks (G12 and H12). Plates are left at RT for a minimum of 1 h. Plates are then rinsed gently by immersing in a plastic box with water, tapped dry gently and left open until they are fully dry. Dye is solubilized adding 100 μl of 1% lauroylsarcosine to each well and shaking for 1 h at 37° C. Plates are read on the SpectraMax spectrophotometer at 620 nm wavelength using the SOFTmax Pro software package.
as §6, §7

As for “1-(4-{6-[3-Fluoro-4-(2-methoxy-ethoxy)-phenyl]-quinazolin-4-ylamino}-phenyl)-5-methyl-1H-[1,2,4]triazole-3-carboxylic acid [Example 28]”, on HCV replicon 1b (Huh-9B), the IC50 (in general, the concentration that inhibits the measured activity by half) fell in the range of 5 to 20 µM. Moreover, in the data set with Huh-9B, the “Replicon TD50” value is “** (** >25 μM)”.

For `Ic1ccc2ncnc(Nc3ccc(-n4cncn4)cc3)c2c1` [Example 1, (6-Iodo-quinazolin-4-yl)-(4-[1,2,4]triazol-1-yl-phenyl)-amine], the IC50 in the data set on HCV replicon 1b (Huh-9B) (Hepatitis C virus) is less than 5 µM. The “Replicon TD50” value with Huh-9B was “* (* <25 μM)”.

Compound `CC(C)(C)c1ccc2ncnc(Nc3ccc(-n4cncn4)cc3)c2c1` [Example 2, (6-tert-Butyl-quinazolin-4-yl)-(4-[1,2,4]triazol-1-yl-phenyl)-amine] yielded an IC50 in the data set on HCV replicon 1b (Huh-9B) (Hepatitis C virus) of 5 to 20 µM. Also, the “Replicon TD50” value in the data set with Huh-9B was “** (** >25 μM)”.

For the compound `COc1cc2c(Nc3ccc(-n4cncn4)cc3)ncnc2cc1OCCCCl` [Example 3, [7-(3-Chloro-propoxy)-6-methoxy-quinazolin-4-yl]-(4-[1,2,4]triazol-1-yl-phenyl)amine], in the data set with HCV replicon 1b (Huh-9B) (Hepatitis C virus), the IC50 was less than 5 µM. Besides, the “Replicon TD50” value in the data set with Huh-9B is recorded as “** (** >25 μM)”.

`COc1cc2c(Nc3ccc(-n4cncn4)cc3)ncnc2cc1OCCCN1CCOCC1` [Example 4, [6-Methoxy-7-(3-morpholin-4-yl-propoxy)-quinazolin-4-yl]-(4-[1,2,4]triazol-1-yl-phenyl)-amine]: the IC50 in the data set with HCV replicon 1b (Huh-9B) (Hepatitis C virus) was in the range of 5 to 20 µM. In addition, the “Replicon TD50” value in the data set on Huh-9B was “** (** >25 μM)”.

Turning to `Fc1ccc(-c2ccc3ncnc(Nc4ccc(-n5cncn5)cc4)c3c2)cc1F` [Example 5, [6-(3,4-Difluoro-phenyl)-quinazolin-4-yl]-(4-[1,2,4]triazol-1-yl-phenyl)-amine], the IC50 with HCV replicon 1b (Huh-9B) (Hepatitis C virus) was less than 5 µM. Besides, in the data set with Huh-9B, the “Replicon TD50” value is given as “** (** >25 μM)”.

Compound `Fc1cc(-c2ccc3ncnc(Nc4ccc(-n5cncn5)cc4)c3c2)ccc1Cl` [Example 6, [6-(4-Chloro-3-fluoro-phenyl)-quinazolin-4-yl]-(4-[1,2,4]triazol-1-yl-phenyl)-amine] yielded an IC50 in the data set with HCV replicon 1b (Huh-9B) (Hepatitis C virus) of more than 20 µM. Also, the “Replicon TD50” value with Huh-9B is listed as “** (** >25 μM)”.

Turning to `COc1ccc(-c2ccc3ncnc(Nc4ccc(-n5cncn5)cc4)c3c2)cc1F` [Example 7, [6-(3-Fluoro-4-methoxy-phenyl)-quinazolin-4-yl]-(4-[1,2,4]triazol-1-yl-phenyl)-amine], the IC50 in the data set on HCV replicon 1b (Huh-9B) (Hepatitis C virus) is less than 5 µM. For the same compound, in the data set on Huh-9B, the “Replicon TD50” value was “** (** >25 μM)”.

In turn, `CCOc1ccc(-c2ccc3ncnc(Nc4ccc(-n5cncn5)cc4)c3c2)cc1F` [Example 8, [6-(4-Ethoxy-3-fluoro-phenyl)-quinazolin-4-yl]-(4-[1,2,4]triazol-1-yl-phenyl)-amine] showed an IC50 in the data set with HCV replicon 1b (Huh-9B) (Hepatitis C virus) of less than 5 µM. The “Replicon TD50” value with Huh-9B is “** (** >25 μM)”.

In the data set with HCV replicon 1b (Huh-9B) (Hepatitis C virus), `COCCOc1ccc(-c2ccc3ncnc(Nc4ccc(-n5cncn5)cc4)c3c2)cc1F` [Example 9, {6-[3-Fluoro-4-(2-methoxy-ethoxy)-phenyl]-quinazolin-4-yl}-(4-[1,2,4]triazol-1-yl-phenyl)-amine] had an IC50 of less than 5 µM. For the same compound, the “Replicon TD50” value with Huh-9B was “** (** >25 μM)”.

For `CCOc1ccc(-c2ccc3ncnc(Nc4ccc(-n5cncn5)cc4)c3c2)cc1OCC` [Example 11, [6-(3,4-Diethoxy-phenyl)-quinazolin-4-yl]-(4-[1,2,4]triazol-1-yl-phenyl)-amine], the IC50 in the data set with HCV replicon 1b (Huh-9B) (Hepatitis C virus) is less than 5 µM. The “Replicon TD50” value in the data set with Huh-9B is on record as “** (** >25 μM)”.

As for `CN(C)CCOc1ccc(-c2ccc3ncnc(Nc4ccc(-n5cncn5)cc4)c3c2)cc1` [Example 12, {6-[4-(2-Dimethylamino-ethoxy)-phenyl]-quinazolin-4-yl}-(4-[1,2,4]triazol-1-yl-phenyl)-amine], the half-inhibitory concentration (IC50) in the data set with HCV replicon 1b (Huh-9B) (Hepatitis C virus) was less than 5 µM. For the same compound, the “Replicon TD50” value in the data set with Huh-9B is reported as “* (* <25 μM)”.

For `c1cc(COc2ccc(-c3ccc4ncnc(Nc5ccc(-n6cncn6)cc5)c4c3)cc2)ccn1` [Example 13], the IC50 at HCV replicon 1b (Huh-9B) lay within 5 to 20 µM. Besides, in the data set with Huh-9B, the “Replicon TD50” value is “* (* <25 μM)”.

Compound `c1nc(Nc2ccc(-n3cncn3)cc2)c2cc(-c3ccc(N4CCOCC4)cc3)ccc2n1` [Example 14] registered an IC50 on HCV replicon 1b (Huh-9B) of less than 5 µM. Also, in the data set on Huh-9B, the “Replicon TD50” value is listed as “* (* <25 μM)”.

In turn, `c1nc(Nc2ccc(-n3cncn3)cc2)c2cc(-c3ccc4c(c3)OCCO4)ccc2n1` [Example 15, [6-(2,3-Dihydro-benzo[1,4]dioxin-6-yl)-quinazolin-4-yl]-(4-[1,2,4]triazol-1-yl-phenyl)-amine] showed an IC50 in the data set on HCV replicon 1b (Huh-9B) (Hepatitis C virus) of less than 5 µM. Further, the “Replicon TD50” value in the data set on Huh-9B was “** (** >25 μM)”.

In the data set on HCV replicon 1b (Huh-9B) (Hepatitis C virus), `COc1ncc(-c2ccc3ncnc(Nc4ccc(-n5cncn5)cc4)c3c2)cn1` [Example 16, [6-(2-Methoxy-pyrimidin-5-yl)-quinazolin-4-yl]-(4-[1,2,4]triazol-1-yl-phenyl)-amine] displayed an IC50 of less than 5 µM. In addition, the “Replicon TD50” value in the data set with Huh-9B was “** (** >25 μM)”.

`c1csc(-c2ccc3ncnc(Nc4ccc(-n5cncn5)cc4)c3c2)c1` [Example 17, (6-Thiophen-2-yl-quinazolin-4-yl)-(4-[1,2,4]triazol-1-yl-phenyl)-amine] had a 50% inhibitory concentration (IC50) in the data set with HCV replicon 1b (Huh-9B) (Hepatitis C virus) of less than 5 µM. For the same compound, the “Replicon TD50” value with Huh-9B is given as “** (** >25 μM)”.

Consider `Cc1csc(-c2ccc3ncnc(Nc4ccc(-n5cncn5)cc4)c3c2)c1` [Example 18, [6-(4-Methyl-thiophen-2-yl)-quinazolin-4-yl]-(4-[1,2,4]triazol-1-yl-phenyl)-amine], for which the concentration for half-maximal inhibition (IC50) in the data set on HCV replicon 1b (Huh-9B) (Hepatitis C virus) was less than 5 µM. In addition, the “Replicon TD50” value in the data set on Huh-9B was “** (** >25 μM)”.

`c1coc(-c2ccc3ncnc(Nc4ccc(-n5cncn5)cc4)c3c2)c1` [Example 19] returned a concentration for half-maximal inhibition (IC50) at HCV replicon 1b (Huh-9B) of less than 5 µM. The “Replicon TD50” value in the data set on Huh-9B is “** (** >25 μM)”.

For the compound `CN(C)CCOc1ccc(-c2ccc3ncnc(Nc4ccc(-n5cncn5)cc4)c3c2)cc1F` [Example 20, {6-[4-(2-Dimethylamino-ethoxy)-3-fluoro-phenyl]-quinazoline-4-yl}-(4-[1,2,4]triazole-1-yl-phenyl)amine], the IC50 with HCV replicon 1b (Huh-9B) (Hepatitis C virus) was less than 5 µM. In addition, the “Replicon TD50” value in the data set on Huh-9B was “* (* <25 μM)”.

For the compound `Brc1ccc2ncnc(Nc3ccc(-n4cncn4)cc3)c2c1` [Example 21, (6-Bromo-quinazolin-4-yl)-(4-[1,2,4]triazol-1-yl-phenyl)-amine], the IC50 in the data set with HCV replicon 1b (Huh-9B) (Hepatitis C virus) is less than 5 µM. The “Replicon TD50” value in the data set with Huh-9B is on record as “** (** >25 μM)”.

`CN(C)CCN(C)CCOc1ccc(-c2ccc3ncnc(Nc4ccc(-n5cncn5)cc4)c3c2)cc1F` [Example 22, N-(2-{2-Fluoro-4-[4-(4-[1,2,4]triazol-1-yl-phenylamino)-quinazolin-6-yl]-phenoxy}-ethyl)-N,N′,N′-trimethyl-ethane-1,2-diamine] showed an IC50 in the data set on HCV replicon 1b (Huh-9B) (Hepatitis C virus) of less than 5 µM. Moreover, in the data set with Huh-9B, the “Replicon TD50” value is on record as “* (* <25 μM)”.

For the compound `COc1ccc(-c2ccc3ncnc(Nc4ccc(-n5cncn5)cc4)c3c2)cc1OC(C)C` [Example 23, [6-(3-Isopropoxy-4-methoxy-phenyl)-quinazolin-4-yl]-(4-[1,2,4]triazol-1-yl-phenyl)-amine], the IC50 with HCV replicon 1b (Huh-9B) (Hepatitis C virus) is less than 5 µM. Moreover, the “Replicon TD50” value in the data set on Huh-9B is on record as “* (* <25 μM)”.

In the data set with HCV replicon 1b (Huh-9B) (Hepatitis C virus), `CC(C)Oc1cc(-c2ccc3ncnc(Nc4ccc(-n5cncn5)cc4)c3c2)ccc1F` [Example 24, [6-(4-Fluoro-3-isopropoxy-phenyl)-quinazolin-4-yl]-(4-[1,2,4]triazol-1-yl-phenyl)-amine] returned an IC50 of less than 5 µM. In addition, in the data set on Huh-9B, the “Replicon TD50” value is listed as “** (** >25 μM)”.

Regarding `Fc1cc(-c2ccc3ncnc(Nc4ccc(-n5cncn5)cc4)c3c2)ccc1OCCCN1CCCC1` [Example 25, {6-[3 fluoro-4-(3-pyrrolidin-1-yl-propoxy)-phenyl]-quinazoline-4-yl}-(4-[1,2,4]triazole-1-yl-phenyl)amine], the IC50 in the data set with HCV replicon 1b (Huh-9B) (Hepatitis C virus) is less than 5 µM. Besides, in the data set with Huh-9B, the “Replicon TD50” value is “* (* <25 μM)”.
